{"source": "paper PMC7614683", "about": "“A small molecule PI3Kα activator for cardioprotection and neuroregeneration” (Nature, 2023)", "experiment_in_all_cases": "SelectScreen Z-LYTE kinase activity assay (SI Table 6)", "type_in_all_cases": "biochemical", "key": {"[1]": {"target": "protein kinases of the Z-LYTE panel (Homo sapiens, UniProt P53350)", "sequence (P53350 whole entry)": "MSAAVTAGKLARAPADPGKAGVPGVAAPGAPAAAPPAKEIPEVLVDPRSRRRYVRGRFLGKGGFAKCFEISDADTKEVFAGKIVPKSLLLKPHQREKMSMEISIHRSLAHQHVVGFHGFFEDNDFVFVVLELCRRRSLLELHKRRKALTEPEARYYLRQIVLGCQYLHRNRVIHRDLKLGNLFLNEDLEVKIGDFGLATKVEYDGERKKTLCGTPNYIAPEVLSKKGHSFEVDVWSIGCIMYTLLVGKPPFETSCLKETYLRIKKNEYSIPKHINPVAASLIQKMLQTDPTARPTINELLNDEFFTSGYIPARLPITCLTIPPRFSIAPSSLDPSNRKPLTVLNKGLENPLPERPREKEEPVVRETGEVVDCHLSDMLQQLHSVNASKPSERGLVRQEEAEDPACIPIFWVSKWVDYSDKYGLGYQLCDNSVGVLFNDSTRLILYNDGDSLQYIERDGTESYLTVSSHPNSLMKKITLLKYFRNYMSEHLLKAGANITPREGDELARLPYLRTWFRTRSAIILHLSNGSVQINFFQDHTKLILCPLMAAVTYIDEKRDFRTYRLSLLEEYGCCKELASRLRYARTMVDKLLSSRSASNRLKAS", "outline": "(§1)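 Compound 1938 counterscreened at 1 μM against 133 protein and 7 lipid kinases in the SelectScreen panel, using Adapta, LanthaScreen binding and Z-LYTE formats as applicable.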"}, "[2]": {"target": "protein kinases of the Z-LYTE panel (Homo sapiens, UniProt P24941)", "outline": "as §1"}, "[3]": {"target": "protein kinases of the Z-LYTE panel (Homo sapiens, UniProt Q9P0L2)", "sequence (Q9P0L2 whole entry)": "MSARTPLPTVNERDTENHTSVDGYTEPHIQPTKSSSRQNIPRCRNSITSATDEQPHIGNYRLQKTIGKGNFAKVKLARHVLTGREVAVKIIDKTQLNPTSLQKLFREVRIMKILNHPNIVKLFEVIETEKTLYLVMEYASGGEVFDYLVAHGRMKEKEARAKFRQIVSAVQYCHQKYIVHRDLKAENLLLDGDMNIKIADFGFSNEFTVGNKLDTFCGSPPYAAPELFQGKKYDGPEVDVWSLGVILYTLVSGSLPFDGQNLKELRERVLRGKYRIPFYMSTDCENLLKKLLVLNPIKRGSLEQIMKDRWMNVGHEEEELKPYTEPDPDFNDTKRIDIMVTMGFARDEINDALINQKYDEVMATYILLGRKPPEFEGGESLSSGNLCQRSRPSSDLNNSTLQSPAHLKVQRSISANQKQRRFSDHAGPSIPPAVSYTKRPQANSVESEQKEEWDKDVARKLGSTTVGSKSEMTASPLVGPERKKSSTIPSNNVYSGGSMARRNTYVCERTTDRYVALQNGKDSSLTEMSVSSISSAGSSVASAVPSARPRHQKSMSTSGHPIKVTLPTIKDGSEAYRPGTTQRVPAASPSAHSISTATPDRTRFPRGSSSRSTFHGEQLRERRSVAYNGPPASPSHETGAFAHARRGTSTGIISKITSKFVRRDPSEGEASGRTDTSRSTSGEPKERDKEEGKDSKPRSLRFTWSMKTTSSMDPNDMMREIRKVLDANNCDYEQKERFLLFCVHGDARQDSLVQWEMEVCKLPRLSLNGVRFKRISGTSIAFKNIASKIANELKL", "outline": "as §1"}, "[4]": {"target": "T1, protein kinases of the Z-LYTE panel (Homo sapiens, UniProt P36896)", "T1 sequence (P36896 24-505)": "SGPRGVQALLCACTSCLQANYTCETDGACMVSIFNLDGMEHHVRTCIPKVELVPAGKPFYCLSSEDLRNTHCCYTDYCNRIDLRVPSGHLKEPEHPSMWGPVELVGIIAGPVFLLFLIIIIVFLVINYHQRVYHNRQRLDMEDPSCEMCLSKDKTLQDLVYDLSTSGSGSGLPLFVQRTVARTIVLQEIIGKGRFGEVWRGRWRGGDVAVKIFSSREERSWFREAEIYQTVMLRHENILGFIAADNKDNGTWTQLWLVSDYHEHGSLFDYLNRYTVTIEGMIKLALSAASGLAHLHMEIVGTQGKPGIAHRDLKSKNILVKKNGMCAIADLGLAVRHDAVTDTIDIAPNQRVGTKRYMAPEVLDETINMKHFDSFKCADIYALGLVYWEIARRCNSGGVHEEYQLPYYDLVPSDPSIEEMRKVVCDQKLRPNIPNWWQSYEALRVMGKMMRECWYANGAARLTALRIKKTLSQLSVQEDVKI", "outline": "as §1"}, "[5]": {"target": "T2, protein kinases of the Z-LYTE panel (Homo sapiens, UniProt Q9NWZ3)", "T2 sequence (Q9NWZ3 1-460)": "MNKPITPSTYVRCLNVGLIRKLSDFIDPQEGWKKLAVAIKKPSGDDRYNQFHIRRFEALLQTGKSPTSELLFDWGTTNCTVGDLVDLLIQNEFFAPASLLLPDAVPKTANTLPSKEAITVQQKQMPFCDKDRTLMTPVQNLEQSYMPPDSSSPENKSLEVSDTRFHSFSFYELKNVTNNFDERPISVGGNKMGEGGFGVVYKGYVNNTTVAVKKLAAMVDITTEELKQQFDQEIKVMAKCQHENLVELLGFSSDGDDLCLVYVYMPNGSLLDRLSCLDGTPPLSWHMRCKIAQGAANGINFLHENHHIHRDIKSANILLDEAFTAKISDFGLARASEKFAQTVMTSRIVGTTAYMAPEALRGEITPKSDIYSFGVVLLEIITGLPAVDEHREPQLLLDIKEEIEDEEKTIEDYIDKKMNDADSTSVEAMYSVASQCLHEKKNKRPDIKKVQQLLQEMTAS", "outline": "as §1"}, "[6]": {"target": "T3, protein kinases of the Z-LYTE panel (Homo sapiens, UniProt Q13043)", "T3 sequence (Q13043 1-487)": "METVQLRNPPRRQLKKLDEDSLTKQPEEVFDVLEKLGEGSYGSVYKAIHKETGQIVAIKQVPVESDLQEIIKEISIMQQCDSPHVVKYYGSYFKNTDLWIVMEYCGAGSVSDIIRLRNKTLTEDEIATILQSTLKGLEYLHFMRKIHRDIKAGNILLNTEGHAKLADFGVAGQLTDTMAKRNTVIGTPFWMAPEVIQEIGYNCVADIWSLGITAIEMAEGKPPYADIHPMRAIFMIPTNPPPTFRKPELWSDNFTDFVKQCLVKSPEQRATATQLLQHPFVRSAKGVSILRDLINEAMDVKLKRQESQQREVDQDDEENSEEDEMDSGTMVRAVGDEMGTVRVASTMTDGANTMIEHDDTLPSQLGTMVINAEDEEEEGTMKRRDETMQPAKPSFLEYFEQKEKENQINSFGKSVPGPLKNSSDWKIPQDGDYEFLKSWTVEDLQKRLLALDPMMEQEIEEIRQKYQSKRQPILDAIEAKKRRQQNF", "outline": "as §1"}, "[7]": {"target": "protein kinases of the Z-LYTE panel (Homo sapiens, UniProt P07332)", "sequence (P07332 whole entry)": "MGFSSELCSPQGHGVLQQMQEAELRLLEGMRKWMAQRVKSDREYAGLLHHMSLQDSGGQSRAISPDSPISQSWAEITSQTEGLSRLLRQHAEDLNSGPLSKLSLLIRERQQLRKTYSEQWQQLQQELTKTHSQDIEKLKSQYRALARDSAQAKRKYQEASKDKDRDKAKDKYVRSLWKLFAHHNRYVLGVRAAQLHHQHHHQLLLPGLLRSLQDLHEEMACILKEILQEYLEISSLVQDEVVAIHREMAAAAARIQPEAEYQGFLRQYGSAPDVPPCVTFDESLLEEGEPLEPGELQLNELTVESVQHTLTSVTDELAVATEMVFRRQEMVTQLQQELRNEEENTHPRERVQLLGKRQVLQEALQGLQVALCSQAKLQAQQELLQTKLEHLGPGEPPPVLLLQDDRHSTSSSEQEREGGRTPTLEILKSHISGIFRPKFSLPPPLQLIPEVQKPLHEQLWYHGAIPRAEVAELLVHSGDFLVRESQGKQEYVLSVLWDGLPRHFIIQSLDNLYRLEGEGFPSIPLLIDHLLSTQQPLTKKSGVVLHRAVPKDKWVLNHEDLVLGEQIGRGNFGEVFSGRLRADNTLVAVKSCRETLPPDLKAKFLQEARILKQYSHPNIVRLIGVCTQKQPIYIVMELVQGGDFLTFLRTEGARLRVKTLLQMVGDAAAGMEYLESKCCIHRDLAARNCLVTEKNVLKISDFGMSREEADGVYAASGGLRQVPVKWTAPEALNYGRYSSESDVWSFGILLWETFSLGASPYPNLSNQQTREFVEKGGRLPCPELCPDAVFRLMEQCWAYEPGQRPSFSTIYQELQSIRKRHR", "outline": "as §1"}}, "note": "Read-outs that look alike come from different tables or passages of the source.", "data": [{"smiles": "CCN1CCN(c2ccc(Nc3cc(Nc4cccc5c4N(C(C)=O)CC5)ccn3)cc2)CC1", "note": "[Compound 1938]", "values": [{"measurement": "inhibition at 1 µM", "setting": "[1]; read-out: % Inhibition Point 1", "value": 2.86, "unit": "%"}, {"measurement": "inhibition at 1 µM", "setting": "[1]; read-out: % Inhibition Point 2", "value": 3.28, "unit": "%"}, {"measurement": "inhibition at 1 µM", "setting": "[1]; read-out: % Inhibition mean", "value": 3, "unit": "%"}, {"measurement": "inhibition at 1 µM", "setting": "[2]; read-out: % Inhibition Point 1", "value": 1.74, "unit": "%"}, {"measurement": "inhibition at 1 µM", "setting": "[2]; read-out: % Inhibition Point 2", "value": 3.28, "unit": "%"}, {"measurement": "inhibition at 1 µM", "setting": "[2]; read-out: % Inhibition mean", "value": 2.51, "unit": "%"}, {"measurement": "inhibition at 1 µM", "setting": "[3]; read-out: % Inhibition Point 1", "value": 5.55, "unit": "%"}, {"measurement": "inhibition at 1 µM", "setting": "[3]; read-out: % Inhibition Point 2", "value": 3.46, "unit": "%"}, {"measurement": "inhibition at 1 µM", "setting": "[3]; read-out: % Inhibition mean", "value": 4.5, "unit": "%"}, {"measurement": "inhibition at 1 µM", "setting": "[4]; read-out: % Inhibition Point 1", "value": -27, "unit": "%"}, {"measurement": "inhibition at 1 µM", "setting": "[4]; read-out: % Inhibition Point 2", "value": -3, "unit": "%"}, {"measurement": "inhibition at 1 µM", "setting": "[4]; read-out: % Inhibition mean", "value": -15, "unit": "%"}, {"measurement": "inhibition at 1 µM", "setting": "[5]; read-out: % Inhibition Point 1", "value": -0.0182, "unit": "%"}, {"measurement": "inhibition at 1 µM", "setting": "[5]; read-out: % Inhibition Point 2", "value": -2.21, "unit": "%"}, {"measurement": "inhibition at 1 µM", "setting": "[5]; read-out: % Inhibition mean", "value": -1.11, "unit": "%"}, {"measurement": "inhibition at 1 µM", "setting": "[6]; read-out: % Inhibition Point 1", "value": 4, "unit": "%"}, {"measurement": "inhibition at 1 µM", "setting": "[6]; read-out: % Inhibition Point 2", "value": 1.07, "unit": "%"}, {"measurement": "inhibition at 1 µM", "setting": "[6]; read-out: % Inhibition mean", "value": 2.46, "unit": "%"}, {"measurement": "inhibition at 1 µM", "setting": "[7]; read-out: % Inhibition Point 1", "value": 7, "unit": "%"}, {"measurement": "inhibition at 1 µM", "setting": "[7]; read-out: % Inhibition Point 2", "value": 8, "unit": "%"}, {"measurement": "inhibition at 1 µM", "setting": "[7]; read-out: % Inhibition mean", "value": 7.57, "unit": "%"}]}]}
